According to paper PMC2679375 (Journal of medicinal chemistry, 2008):

Tests used:
in vivo = details: rat, po
cIAP-2 = cIAP-2 (Homo sapiens, UniProt Q13489); test: FP-based competitive binding assay for cIAP-2; details: relative to compound 2
XIAP BIR3 = XIAP BIR3 (Homo sapiens, UniProt P98170); test: Competitive fluorescence polarization-based XIAP binding assay; details: relative to compound 2
Aqueous solubility = type: physicochemical
[1] = system: MDA-MB-231 cancer cell line; details: within 24-hour treatment

Sequence of XIAP BIR3 (P98170 241-356 limits assumed): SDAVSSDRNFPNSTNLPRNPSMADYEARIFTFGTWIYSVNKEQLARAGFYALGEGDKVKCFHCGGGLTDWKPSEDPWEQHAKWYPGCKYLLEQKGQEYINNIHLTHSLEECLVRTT
Sequence of cIAP-2 (Q13489 whole entry): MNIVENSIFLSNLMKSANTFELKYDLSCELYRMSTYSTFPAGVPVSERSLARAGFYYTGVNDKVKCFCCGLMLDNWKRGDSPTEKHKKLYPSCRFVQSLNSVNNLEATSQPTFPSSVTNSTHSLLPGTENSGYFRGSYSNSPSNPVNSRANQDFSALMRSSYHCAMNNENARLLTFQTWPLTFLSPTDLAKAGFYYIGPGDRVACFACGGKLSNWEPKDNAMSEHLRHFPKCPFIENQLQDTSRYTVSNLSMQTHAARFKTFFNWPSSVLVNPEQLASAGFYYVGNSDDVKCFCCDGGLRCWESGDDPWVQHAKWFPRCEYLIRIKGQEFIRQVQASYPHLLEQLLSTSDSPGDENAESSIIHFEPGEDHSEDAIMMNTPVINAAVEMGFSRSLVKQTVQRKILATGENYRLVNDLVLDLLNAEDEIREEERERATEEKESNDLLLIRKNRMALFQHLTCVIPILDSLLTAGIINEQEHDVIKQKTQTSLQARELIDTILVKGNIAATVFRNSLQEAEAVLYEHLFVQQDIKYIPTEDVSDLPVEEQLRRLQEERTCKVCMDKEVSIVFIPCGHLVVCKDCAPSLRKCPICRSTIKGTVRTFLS

SMILES | times weaker than 2 in binding to cIAP-2 (cIAP-2) | times weaker than compound 2 in binding to XIAP BIR3 (XIAP BIR3) | further results
CN[C@@H](C)C(=O)N[C@H]1CCCC[C@H]2CC[C@@H](C(=O)NC(c3ccccc3)c3ccccc3)N2C1=O [Compound 1] | – | – | AUC(0-inf) (in vivo; 25 mg/kg): 482 ± 92 ng·h/mL
CN[C@@H](C)C(=O)N[C@H]1CN(C)CC[C@H]2CC[C@@H](C(=O)NC(c3ccccc3)c3ccccc3)N2C1=O [Compound 3, (5S,8S,10aR)-N-benzhydryl-3-methyl-5-((S)-2-(methylamino)propanamido)-6-oxodeca-hydro pyrrolo[1,2-a][1,5]diazocine-8-carbox-amide] | 2-3 times | 4-17 times | –
CN[C@@H](C)C(=O)N[C@H]1CN(Cc2ccccc2)CC[C@H]2CC[C@@H](C(=O)NC(c3ccccc3)c3ccccc3)N2C1=O [Compound 4, (5S,8S,10aR)-N-benzhydryl-3-benzyl-5-((S)-2-(methylamino)propanamido)-6-oxodeca-hydropyrrolo[1,2-a][1,5]diazocine-8-carbox-amide] | 2-3 times | 4-17 times | –
CN[C@@H](C)C(=O)N[C@H]1CN(C(=O)Cc2ccccc2)CC[C@H]2CC[C@@H](C(=O)NC(c3ccccc3)c3ccccc3)N2C1=O [Compound 6, (5S,8S,10aR)-N-Benzhydryl-5-((S)-2-(methyl-amino)propanamido)-6-oxo-3-(2-phenyl-acetyl)decahydro pyrrolo[1,2-a][1,5]diazo-cine-8-carboxamide] | – | – | aqueous solubility (in words) (Aqueous solubility): excellent aqueous solubility; AUC(0-inf) (in vivo; 30 mg/kg): 1980 ± 614 ng·h/mL; concentration that effectively induces apoptosis [1]: 100 nM
